The values below come from PMC10685318, “Trans-cyclosulfamidate mannose-configured cyclitol allows isoform-dependent inhibition of GH47 α-D-mannosidases through a bump–hole strategy” (Chemical Science, 2023).

As a reminder, the IC50 is the concentration that inhibits the measured activity by half. A high value points to a need for much substance.

The assay addresses T1, MAN2A1 (Homo sapiens, UniProt Q16706).
T1 construct: expressed in transfected cells
T1 sequence (Q16706 1-1144): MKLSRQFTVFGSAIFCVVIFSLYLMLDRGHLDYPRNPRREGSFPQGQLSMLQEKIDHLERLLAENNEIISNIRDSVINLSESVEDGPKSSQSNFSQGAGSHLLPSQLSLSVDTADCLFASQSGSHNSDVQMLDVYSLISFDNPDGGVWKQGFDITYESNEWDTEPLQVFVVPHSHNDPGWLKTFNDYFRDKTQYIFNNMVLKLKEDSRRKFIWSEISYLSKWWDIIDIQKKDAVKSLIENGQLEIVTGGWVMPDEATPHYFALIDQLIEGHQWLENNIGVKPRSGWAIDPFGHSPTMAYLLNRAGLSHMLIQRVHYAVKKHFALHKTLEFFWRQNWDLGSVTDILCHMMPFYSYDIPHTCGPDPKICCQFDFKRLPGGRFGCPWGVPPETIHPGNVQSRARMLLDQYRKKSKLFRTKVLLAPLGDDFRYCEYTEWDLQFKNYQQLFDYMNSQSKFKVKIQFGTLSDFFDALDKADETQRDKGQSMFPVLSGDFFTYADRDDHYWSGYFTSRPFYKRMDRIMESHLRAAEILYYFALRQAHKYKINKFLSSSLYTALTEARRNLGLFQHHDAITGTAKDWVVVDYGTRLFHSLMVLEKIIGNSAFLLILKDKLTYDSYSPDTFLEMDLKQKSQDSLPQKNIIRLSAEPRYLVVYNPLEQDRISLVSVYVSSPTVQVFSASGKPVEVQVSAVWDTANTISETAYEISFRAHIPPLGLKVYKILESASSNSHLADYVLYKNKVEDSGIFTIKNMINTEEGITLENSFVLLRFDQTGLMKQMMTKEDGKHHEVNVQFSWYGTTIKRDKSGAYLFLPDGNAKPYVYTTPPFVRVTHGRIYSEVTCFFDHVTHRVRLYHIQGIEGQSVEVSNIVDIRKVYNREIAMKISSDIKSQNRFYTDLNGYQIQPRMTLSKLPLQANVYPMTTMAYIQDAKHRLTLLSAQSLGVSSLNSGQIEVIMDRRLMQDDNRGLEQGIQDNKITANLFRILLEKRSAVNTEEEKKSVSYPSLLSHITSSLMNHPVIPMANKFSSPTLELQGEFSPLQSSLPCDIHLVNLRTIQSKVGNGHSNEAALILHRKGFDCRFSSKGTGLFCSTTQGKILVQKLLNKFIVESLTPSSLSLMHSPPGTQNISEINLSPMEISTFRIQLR
In words: 4-MU-α-man activity assay in overexpressed cell lysates. It counts as biochemical.

Consider `O=S1(=O)N[C@@H]2[C@@H](O)[C@@H](O)[C@H](O)[C@@H](CO)[C@H]2O1` [compound 6, 1,6-trans-manno-cyclosulfamidate], for which the “activity when the buffer was enriched with CoCl2” value (CoCl2) is given as “no activity”. Moreover, the IC50 (Zn2+) was > 1000 µM.
